Results published in patent US11802127B2, “3,4-dihydro-2,7-naphthyridine-1,6(2H,7H)-diones as MEK inhibitors” (Pfizer Inc., priority 2021, dated 2023).

What was measured:
BCRP (hBCRP) = target: T1, BCRP (hBCRP) (Homo sapiens, UniProt Q9UNQ0); assay: Efflux ratio in BCRP transfected MDCKII canine P-gp knockout cells; assay type: in vitro ADME; details: Papp(B−A)/Papp(A−B), read-out: Efflux ratio MDCKII-hBCRP knock-in,canine pg-P KO
T1 construct: expressed in transfected cells; host or cells: MDCKII (canine kidney) cells, canine P-gp knockout, transfected with BCRP
T1 sequence (Q9UNQ0 1-655): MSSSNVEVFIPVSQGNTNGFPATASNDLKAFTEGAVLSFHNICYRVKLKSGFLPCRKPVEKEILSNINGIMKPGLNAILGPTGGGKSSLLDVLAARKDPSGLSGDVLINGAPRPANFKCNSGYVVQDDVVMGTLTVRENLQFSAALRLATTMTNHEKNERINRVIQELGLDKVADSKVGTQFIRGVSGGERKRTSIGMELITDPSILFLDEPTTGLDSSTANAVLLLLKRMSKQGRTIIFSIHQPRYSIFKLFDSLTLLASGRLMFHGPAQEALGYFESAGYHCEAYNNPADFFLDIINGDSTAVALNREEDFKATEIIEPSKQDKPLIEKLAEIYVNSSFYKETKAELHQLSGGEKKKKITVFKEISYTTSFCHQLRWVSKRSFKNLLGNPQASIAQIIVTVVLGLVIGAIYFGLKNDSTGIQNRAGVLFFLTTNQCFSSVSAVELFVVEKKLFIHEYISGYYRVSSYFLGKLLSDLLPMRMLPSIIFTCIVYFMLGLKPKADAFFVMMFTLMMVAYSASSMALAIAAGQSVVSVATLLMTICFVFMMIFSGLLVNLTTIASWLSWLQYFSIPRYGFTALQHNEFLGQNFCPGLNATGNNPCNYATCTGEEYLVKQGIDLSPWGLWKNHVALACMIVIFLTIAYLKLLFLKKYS
Summary of the method: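 Test article at 1 μM final (1% organic) in A→B and B→A directions across MDCKII P-gp knockout monolayers expressing BCRP, 2 h at 37° C., triplicate; lucifer yellow checked monolayer integrity. Concentrations by LC-MS/MS against labetalol internal standard; efflux ratio = Papp(B−A)/Papp(A−B).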

[1] = tested on: ERK1/2(Thr202/Tyr204) phosphorylation (MEK-dependent) in A375 cells; assay: Cellular Phospho-p44/42 MAPK (Erk1/2) (Thr202/Tyr204) Assay; assay type: cell-based; details: Homo sapiens, A-375, 1-hour incubation, pERK1/2 (Thr202/Tyr204) In-Cell Western normalized to GAPDH
Summary of the method: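 A375 cells exposed 1 h to 10-point 1:3 dilutions (top 20–1 μM, 0.5% DMSO), then fixed and stained for pERK1/2 (Thr202/Tyr204) by In-Cell Western. Signal normalized to GAPDH per well; DMSO and 1 μM reference inhibitor define 0 and 100% inhibition.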

CSc1ccc(Nc2c3c(cc(=O)n2C)CCN(OCCO)C3=O)c(F)c1 [Example 6, 8-((2-fluoro-4-(methylthio)phenyl)amino)-2-(2-hydroxyethoxy)-7-methyl-3,4-dihydro-2,7-naphthyridine-1,6(2H,7H)-dione]
efflux ratio at 2 h, 1 μM (BCRP (hBCRP)): 5.5
IC50 [1]: 8 nM

Cn1c(Nc2ccc(Br)cc2F)c2c(cc1=O)CCN(OCCO)C2=O [Example 7, 8-((4-bromo-2-fluorophenyl)amino)-2-(2-hydroxyethoxy)-7-methyl-3,4-dihydro-2,7-naphthyridine-1,6(2H,7H)-dione]
efflux ratio at 2 h, 1 μM (BCRP (hBCRP)): 9.6
IC50 [1]: 23 nM

Cn1c(Nc2ccc(I)cc2F)c2c(cc1=O)CCN(OCCO)C2=O [Example 8, 8-((2-fluoro-4-iodophenol)amino)-2-(2-hydroxyethoxy)-7-methyl-3,4-dihydro-2,7-naphthyridine-1,6(2H,7H)-dione]
efflux ratio at 2 h, 1 μM (BCRP (hBCRP)): 3.4
IC50 [1]: 1 nM

CCc1ccc(Nc2c3c(cc(=O)n2C)CCN(OCCO)C3=O)c(F)c1 [Example 14, 8-((4-ethyl-2-fluorophenyl)amino)-2-(2-hydroxyethoxy)-7-methyl-3,4-dihydro-2,7-naphthyridine-1,6(2H,7H)-dione]
efflux ratio at 2 h, 1 μM (BCRP (hBCRP)): 3.4
IC50 [1]: 15 nM

Cn1c(Nc2ccc(OC(F)F)cc2F)c2c(cc1=O)CCN(OCCO)C2=O [Example 22, 8-((4-(difluoromethoxy)-2-fluorophenyl)amino)-2-(2-hydroxyethoxy)-7-methyl-3,4-dihydro-2,7-naphthyridine-1,6(2H,7H)-dione]
efflux ratio at 2 h, 1 μM (BCRP (hBCRP)): 9
IC50 [1]: 21 nM

Cc1c2c(c(Nc3ccc(Br)cc3F)n(C)c1=O)C(=O)N(OCCO)CC2 [Example 36, 8-((4-bromo-2-fluorophenyl)amino)-2-(2-hydroxyethoxy)-5,7-dimethyl-3,4-dihydro-2,7-naphthyridine-1,6(2H,7H)-dione]
efflux ratio at 2 h, 1 μM (BCRP (hBCRP)): 3.5
IC50 [1]: 30 nM
